From ChEMBL document CHEMBL3399986, “Rapid 'one-pot' synthesis of a novel benzimidazole-5-carboxylate and its hydrazone derivatives as potential anti-inflammatory and antimicrobial agents” (Bioorg Med Chem Lett, 2015)
Converted amounts (≈) assume the structure as drawn.

Tests used:
Rattus norvegicus [1] = test: Antiinflammatory activity in rat assessed as inhibition of carrageenan-induced paw edema administered 30 mins prior to carrageenan challenge measured after 1 hr relative to control; assay type: functional
Rattus norvegicus [2] = test: Antiinflammatory activity in rat assessed as inhibition of carrageenan-induced paw edema administered 30 mins prior to carrageenan challenge measured after 2 hrs relative to control; assay type: functional
Rattus norvegicus [3] = test: Antiinflammatory activity in rat assessed as inhibition of carrageenan-induced paw edema administered 30 mins prior to carrageenan challenge measured after 3 hrs relative to control; assay type: functional
Staphylococcus aureus [4] = test: Antimicrobial activity against Staphylococcus aureus MTCC 3160 after 24 hrs by broth dilution method; assay type: functional; conditions: MTCC 3160, 24 h
Bacillus subtilis [5] = test: Antimicrobial activity against Bacillus subtilis MTCC 441 after 24 hrs by broth dilution method; assay type: functional; conditions: MTCC 441, 24 h
Escherichia coli [6] = test: Antimicrobial activity against Escherichia coli MTCC 4351 after 24 hrs by broth dilution method; assay type: functional; conditions: MTCC 4351, 24 h
Klebsiella pneumoniae [7] = test: Antimicrobial activity against Klebsiella pneumoniae MTCC 3384 after 24 hrs by broth dilution method; assay type: functional; conditions: MTCC 3384, 24 h
Staphylococcus aureus [8] = test: Antimicrobial activity against Staphylococcus aureus MTCC 3160 assessed as zone of inhibition at 5 mg/ml after 24 hrs by agar well diffusion method; assay type: functional; conditions: MTCC 3160, 24 h, read-out: IZ
Bacillus subtilis [9] = test: Antimicrobial activity against Bacillus subtilis MTCC 441 assessed as zone of inhibition at 5 mg/ml after 24 hrs by agar well diffusion method; assay type: functional; conditions: MTCC 441, 24 h, read-out: IZ
Escherichia coli [10] = test: Antimicrobial activity against Escherichia coli MTCC 4351 assessed as zone of inhibition at 5 mg/ml after 24 hrs by agar well diffusion method; assay type: functional; conditions: MTCC 4351, 24 h, read-out: IZ
Klebsiella pneumoniae [11] = test: Antimicrobial activity against Klebsiella pneumoniae MTCC 3384 assessed as zone of inhibition at 5 mg/ml after 24 hrs by agar well diffusion method; assay type: functional; conditions: MTCC 3384, 24 h, read-out: IZ
Aspergillus niger [12] = test: Antifungal activity against Aspergillus niger MTCC 282 after 48 hrs by broth dilution method; assay type: functional; conditions: MTCC 282, 48 h
Candida tropicalis [13] = test: Antifungal activity against Candida tropicalis MTCC 183 after 48 hrs by broth dilution method; assay type: functional; conditions: MTCC 183, 48 h
Candida albicans [14] = test: Antifungal activity against Candida albicans MTCC 461 after 48 hrs by broth dilution method; assay type: functional; conditions: MTCC 461, 48 h
Penicillium chrysogenum [15] = test: Antifungal activity against Penicillium notatum after 48 hrs by broth dilution method; assay type: functional
Aspergillus niger [16] = test: Antifungal activity against Aspergillus niger MTCC 282 assessed as zone of inhibition at 5 mg/ml after 24 hrs by agar well diffusion method; assay type: functional; conditions: MTCC 282, 24 h, read-out: IZ
Candida tropicalis [17] = test: Antifungal activity against Candida tropicalis MTCC 183 assessed as zone of inhibition at 5 mg/ml after 24 hrs by agar well diffusion method; assay type: functional; conditions: MTCC 183, 24 h, read-out: IZ
Candida albicans [18] = test: Antifungal activity against Candida albicans MTCC 461 assessed as zone of inhibition at 5 mg/ml after 24 hrs by agar well diffusion method; assay type: functional; conditions: MTCC 461, 24 h, read-out: IZ
Penicillium chrysogenum [19] = test: Antifungal activity against Penicillium notatum assessed as zone of inhibition at 5 mg/ml after 24 hrs by agar well diffusion method; assay type: functional; conditions: read-out: IZ
MDA-MB-231 [20] = test: Cytotoxicity against human MDA-MB-231 cells assessed as cell death at 10 ug/ml after 48 hrs by MTT assay; assay type: cell-based; conditions: mda-mb-231, 48 h
MDA-MB-231 [21] = test: Cytotoxicity against human MDA-MB-231 cells assessed as cell death at 5 ug/ml after 48 hrs by MTT assay; assay type: cell-based; conditions: mda-mb-231, 48 h
MDA-MB-231 [22] = test: Cytotoxicity against human MDA-MB-231 cells assessed as cell death at 2.5 ug/ml after 48 hrs by MTT assay; assay type: cell-based; conditions: mda-mb-231, 48 h
MDA-MB-231 [23] = test: Cytotoxicity against human MDA-MB-231 cells assessed as cell death at 1 ug/ml after 48 hrs by MTT assay; assay type: cell-based; conditions: mda-mb-231, 48 h

| SMILES | inhibition (INH) (Rattus norvegicus [1]) [%] | inhibition (INH) (Rattus norvegicus [2]) [%] | inhibition (INH) (Rattus norvegicus [3]) [%] | MIC (Staphylococcus aureus [4]) [µg/mL] | MIC (Bacillus subtilis [5]) [µg/mL] | MIC (Escherichia coli [6]) [µg/mL] | MIC (Klebsiella pneumoniae [7]) [µg/mL] | zone of inhibition at 5000 µg/mL (Staphylococcus aureus [8]) [mm] | zone of inhibition at 5000 µg/mL (Bacillus subtilis [9]) [mm] | zone of inhibition at 5000 µg/mL (Escherichia coli [10]) [mm] | zone of inhibition at 5000 µg/mL (Klebsiella pneumoniae [11]) [mm] | MIC (Aspergillus niger [12]) [µg/mL] | MIC (Candida tropicalis [13]) [µg/mL] | MIC (Candida albicans [14]) [µg/mL] | MIC (Penicillium chrysogenum [15]) [µg/mL] | zone of inhibition at 5000 µg/mL (Aspergillus niger [16]) [mm] | zone of inhibition at 5000 µg/mL (Candida tropicalis [17]) [mm] | zone of inhibition at 5000 µg/mL (Candida albicans [18]) [mm] | zone of inhibition at 5000 µg/mL (Penicillium chrysogenum [19]) [mm] | Activity (MDA-MB-231 [20]) [%] | other results |
| --- | --- | --- | --- | --- | --- | --- | --- | --- | --- | --- | --- | --- | --- | --- | --- | --- | --- | --- | --- | --- | --- |
| CCCn1c(-c2ccc(Cl)cc2Cl)nc2cc(C(=O)N/N=C/c3ccc(F)cc3)ccc21 | 61.48 | 53.14 | 50.36 | 6.25 (≈ 13.3 µM) | 6.25 (≈ 13.3 µM) | 6.25 (≈ 13.3 µM) | 6.25 (≈ 13.3 µM) | 20 | 19 | 20 | 19 | 6.25 (≈ 13.3 µM) | 6.25 (≈ 13.3 µM) | 6.25 (≈ 13.3 µM) | 25 (≈ 53.3 µM) | 20 | 18 | 18 | 15 | – | – |
| CCCn1c(-c2ccc(Cl)cc2Cl)nc2cc(C(=O)N/N=C/c3cccc(Br)c3)ccc21 | 65.18 | 58.04 | 72.11 | 6.25 (≈ 11.8 µM) | 50 (≈ 94.3 µM) | 12.5 (≈ 23.6 µM) | 25 (≈ 47.1 µM) | 18 | 12 | 18 | 17 | 3.12 (≈ 5.88 µM) | 12.5 (≈ 23.6 µM) | 12.5 (≈ 23.6 µM) | 25 (≈ 47.1 µM) | 22 | 16 | 16 | 15 | 7.46 | Activity (MDA-MB-231 [21]): -2.12%; Activity (MDA-MB-231 [22]): -1.17%; Activity (MDA-MB-231 [23]): -12.5% |
| CCCn1c(-c2ccc(Cl)cc2Cl)nc2cc(C(=O)N/N=C/c3ccc(Br)cc3)ccc21 | 65.55 | 69.51 | 69.05 | 12.5 (≈ 23.6 µM) | 6.25 (≈ 11.8 µM) | 3.12 (≈ 5.88 µM) | 25 (≈ 47.1 µM) | 17 | 19 | 22 | 17 | 6.25 (≈ 11.8 µM) | 12.5 (≈ 23.6 µM) | 25 (≈ 47.1 µM) | 50 (≈ 94.3 µM) | 20 | 16 | 15 | 14 | – | – |
| CCCn1c(-c2ccc(Cl)cc2Cl)nc2cc(C(=O)N/N=C/c3cc(Br)ccc3O)ccc21 | 44.81 | 47.41 | 45.98 | 3.12 (≈ 5.71 µM) | 3.12 (≈ 5.71 µM) | 3.12 (≈ 5.71 µM) | 6.25 (≈ 11.4 µM) | 22 | 22 | 22 | 20 | 3.12 (≈ 5.71 µM) | 6.25 (≈ 11.4 µM) | 3.12 (≈ 5.71 µM) | 6.25 (≈ 11.4 µM) | 22 | 18 | 21 | 18 | 4.46 | Activity (MDA-MB-231 [21]): 0.07%; Activity (MDA-MB-231 [22]): -6.21%; Activity (MDA-MB-231 [23]): -6.58% |
